Experiments:
[1] = excretion route of the iron complex; settings: in vivo
[2] = T1-relaxivity measurements at different magnetic field strengths in water and foetal bovine serum; format: physicochemical
Procedure: For the subsequent T1-relaxivity measurements which were carried out, ultra-pure water and foetal bovine serum (FBS, pH 7.7) were used as the solvent for the metallic complexes. The relaxivity measurements at different magnetic field strengths were carried out on the following instruments: 0.94 T with a NMR relaxometer (Bruker Minispec mq 40, Germany), 1.5 T with a SIEMENS MAGNETOM Sonata MRI, 3 T with a SIEMENS MAGNETOM Lumina MRI and 7 T with a Bruker Pharmascan Kleintier-MRI.

[3] = pH dependency of T1- and T2-relaxivity in water (0.94 T NMR relaxometer); format: physicochemical; settings: pH<6
Source text: At pH<6, a maximum T1-relaxivity of 1.7 l·mmol^−1·s^−1 or T2-relaxivity of 1.9 l·mmol^−1·s^−1 was reached.

SMILES	excretion route [1]	T1-relaxivity (r1) per metal ion ([2]; 0.94 T, 37° C., FBS (pH 7.7))	T1-relaxivity per molecule ([2]; 0.94 T, 37° C., FBS (pH 7.7))	T1-relaxivity (r1) per metal ion ([2]; 0.94 T, 37° C., water)	T1-relaxivity per molecule ([2]; 0.94 T, 37° C., water)	T1-relaxivity (r1) per metal ion ([2]; 1.5 T, 23° C., FBS (pH 7.7))	T1-relaxivity per molecule ([2]; 1.5 T, 23° C., FBS (pH 7.7))	T1-relaxivity (r1) per metal ion ([2]; 1.5 T, 23° C., water)	T1-relaxivity per molecule ([2]; 1.5 T, 23° C., water)	T1-relaxivity (r1) per metal ion ([2]; 3.0 T, 37° C., FBS (pH 7.7))	T1-relaxivity per molecule ([2]; 3.0 T, 37° C., FBS (pH 7.7))	T1-relaxivity (r1) per metal ion ([2]; 3.0 T, 37° C., water)	T1-relaxivity per molecule ([2]; 3.0 T, 37° C., water)	T1-relaxivity (r1) per metal ion ([2]; 7.0 T, 37° C., FBS (pH 7.7))	T1-relaxivity per molecule ([2]; 7.0 T, 37° C., FBS (pH 7.7))	T1-relaxivity (r1) per metal ion ([2]; 7.0 T, 37° C., water)	T1-relaxivity per molecule ([2]; 7.0 T, 37° C., water)	maximum T1-relaxivity [3]	maximum T2-relaxivity [3]
O=C(O)CN(CC(=O)O)[C@@H]1CCCC[C@H]1N(CC(=O)O)CC(=O)N[C@H]1CC[C@H](NC(=O)CN(CC(=O)O)[C@@H]2CCCC[C@H]2N(CC(=O)O)CC(=O)O)CC1 [(1-2)]	liver excretion	2.18 L/mmol/s	4.36 L/mmol/s	1.99 L/mmol/s	3.98 L/mmol/s	3.26 L/mmol/s	6.52 L/mmol/s	2.75 L/mmol/s	5.5 L/mmol/s	3.39 L/mmol/s	6.78 L/mmol/s	2.99 L/mmol/s	5.98 L/mmol/s	3.23 L/mmol/s	6.46 L/mmol/s	2.65 L/mmol/s	5.3 L/mmol/s	–	–
NCCNC(=O)CN(CC(=O)O)[C@@H]1CCCC[C@H]1N(CC(=O)O)CC(=O)O [(2-1)]	–	–	–	–	–	–	–	–	–	–	–	–	–	–	–	–	–	1.7 L/mmol/s	1.9 L/mmol/s
N[C@H]1CC[C@H](NC(=O)CN(CC(=O)O)[C@@H]2CCCC[C@H]2N(CC(=O)O)CC(=O)O)CC1 [(2-2)]	–	2.01 L/mmol/s	–	1.92 L/mmol/s	–	2.74 L/mmol/s	–	2.27 L/mmol/s	–	3.06 L/mmol/s	–	2.64 L/mmol/s	–	2.61 L/mmol/s	–	2.38 L/mmol/s	–	–	–

Source: patent US12465659B2, “Iron(III) complexes having new contrast agent properties, for magnetic resonance imaging” (CHARITÉ—UNIVERSITÄTSMEDIZIN BERLIN, priority 2019, dated 2025)
